Read-outs that look alike come from different tables or passages of the source. One block for each molecule: values may come before it.
Target: T1, BRM (Homo sapiens, UniProt P51531)
T1 construct: In-Cell Western Screen of BRM Degradation in SW1573 Cells; endogenous in cells; host or cells: SW1573
Experiment: In-cell Western screen of BRM degradation in SW1573 cells (Dmax and DC50)
Format: cell-based
Summary of the method: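 SW1573 cells were treated overnight (18-20 hours) with compound at 0.1% final DMSO. They were then PFA-fixed, permeabilised with Triton X-100 and immunostained with 800 nm/680 nm secondary antibodies. BRM signal was quantified by LI-COR in-cell Western imaging to derive Dmax and DC50.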

[1] = SW1573, % degraded, when tested at the top concentration of between 0.3 and 10 μM, read-out: BRM Dmax (%)
[2] = target protein degradation, read-out: BRM DC50
[3] = BRM degradation, SW1573 cells, Table 2D, read-out: **Dmax (%) (% degraded)
[4] = BRM degradation, SW1573 cells, Table 2D, read-out: *DC50
[5] = BRM degradation, SW1573 cells, read-out: DC50
[6] = BRM degradation, SW1573 cells, read-out: Dmax (% degraded)

T1 sequence (P51531 whole entry): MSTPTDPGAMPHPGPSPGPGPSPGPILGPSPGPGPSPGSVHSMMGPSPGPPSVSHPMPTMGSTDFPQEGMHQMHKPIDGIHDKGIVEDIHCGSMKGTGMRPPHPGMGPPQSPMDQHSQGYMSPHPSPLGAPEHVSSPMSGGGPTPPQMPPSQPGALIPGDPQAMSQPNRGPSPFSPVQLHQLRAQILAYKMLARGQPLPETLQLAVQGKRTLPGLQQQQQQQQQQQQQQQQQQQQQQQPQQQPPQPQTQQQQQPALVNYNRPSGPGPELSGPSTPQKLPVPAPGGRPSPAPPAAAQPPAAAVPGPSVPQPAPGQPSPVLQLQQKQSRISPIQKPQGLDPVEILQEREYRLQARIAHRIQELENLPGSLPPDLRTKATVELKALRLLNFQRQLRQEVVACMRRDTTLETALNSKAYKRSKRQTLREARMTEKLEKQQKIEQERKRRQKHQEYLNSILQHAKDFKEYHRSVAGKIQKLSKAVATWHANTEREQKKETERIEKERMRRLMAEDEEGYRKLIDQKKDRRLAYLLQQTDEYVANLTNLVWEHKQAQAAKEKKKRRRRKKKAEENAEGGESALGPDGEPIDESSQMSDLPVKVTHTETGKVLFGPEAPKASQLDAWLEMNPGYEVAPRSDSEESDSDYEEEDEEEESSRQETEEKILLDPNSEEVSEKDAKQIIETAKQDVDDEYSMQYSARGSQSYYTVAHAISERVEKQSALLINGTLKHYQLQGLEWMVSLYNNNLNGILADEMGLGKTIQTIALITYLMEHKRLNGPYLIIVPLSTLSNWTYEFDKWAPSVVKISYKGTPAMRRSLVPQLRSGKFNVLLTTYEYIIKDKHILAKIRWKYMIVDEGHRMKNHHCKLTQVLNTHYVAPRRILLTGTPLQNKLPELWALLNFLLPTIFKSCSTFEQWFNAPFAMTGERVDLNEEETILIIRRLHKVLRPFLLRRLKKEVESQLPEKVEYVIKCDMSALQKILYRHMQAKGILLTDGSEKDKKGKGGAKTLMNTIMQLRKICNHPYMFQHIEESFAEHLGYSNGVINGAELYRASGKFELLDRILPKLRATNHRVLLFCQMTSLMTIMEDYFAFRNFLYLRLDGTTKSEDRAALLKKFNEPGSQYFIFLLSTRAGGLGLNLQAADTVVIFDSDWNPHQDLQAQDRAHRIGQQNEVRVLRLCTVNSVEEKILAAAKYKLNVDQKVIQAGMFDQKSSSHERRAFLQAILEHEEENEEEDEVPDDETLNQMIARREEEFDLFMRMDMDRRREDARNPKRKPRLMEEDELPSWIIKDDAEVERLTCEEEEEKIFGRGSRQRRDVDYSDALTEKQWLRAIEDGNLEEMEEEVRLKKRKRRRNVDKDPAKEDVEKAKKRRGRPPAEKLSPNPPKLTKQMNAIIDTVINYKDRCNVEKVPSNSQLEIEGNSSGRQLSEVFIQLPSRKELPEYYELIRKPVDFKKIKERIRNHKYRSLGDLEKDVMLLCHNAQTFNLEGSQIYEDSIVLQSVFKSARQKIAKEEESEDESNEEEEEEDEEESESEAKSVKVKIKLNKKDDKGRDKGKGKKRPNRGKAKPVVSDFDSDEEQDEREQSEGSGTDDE

Structure (SMILES): Cc1ncsc1-c1ccc([C@H](C)NC(=O)[C@@H]2C[C@@H](O)CN2C(=O)[C@@H](c2cc(OCCN3CCC(O[C@H]4C[C@H](Oc5nccc(N6C7CCC6CN(c6cc(-c8ccccc8O)nnc6N)C7)n5)C4)CC3)no2)C(C)C)cc1 [compound 464, (2S,4R)-1-((2R)-2-(3-(2-(4-((1r,3R)-3-((4-(3-(3-amino-6-(2-hydroxyphenyl)pyridazin-4-yl)-3,8-diazabicyclo[3.2.1]octan-8-yl)pyrimidin-2-yl)oxy)cyclobutoxy)piperidin-1-yl)ethoxy)isoxazol-5-yl)-3-methylbutanoyl)-4-hydroxy-N-((S)-1-(4-(4-methylthiazol-5-yl)phenyl)ethyl)pyrrolidine-2-carboxamide]
Dmax [1]: > 75%
DC50 [2]: < 2.5 nM

Structure (SMILES): Cc1ncsc1-c1ccc([C@H](C)NC(=O)[C@@H]2C[C@@H](O)CN2C(=O)[C@@H](c2cc(OCCN3CCC(N4CC(Oc5cc(N6C7CCC6CN(c6cc(-c8ccccc8O)nnc6N)C7)ccn5)C4)CC3)no2)C(C)C)cc1 [compound 374, (2S,4R)-1-((2R)-2-(3-(2-(4-(3-((4-(3-(3-amino-6-(2-hydroxyphenyl)pyridazin-4-yl)-3,8-diazabicyclo[3.2.1]octan-8-yl)pyridin-2-yl)oxy)azetidin-1-yl)piperidin-1-yl)ethoxy)isoxazol-5-yl)-3-methylbutanoyl)-4-hydroxy-N-((S)-1-(4-(4-methylthiazol-5-yl)phenyl)ethyl)pyrrolidine-2-carboxamide]
Dmax [1]: > 75%
DC50 [2]: > 30 nM

Structure (SMILES): Cc1ncsc1-c1ccc([C@H](C)NC(=O)[C@@H]2C[C@@H](O)CN2C(=O)[C@@H](c2cc(OCC[C@H]3CCN(C[C@H]4C[C@H](Oc5cc(N6C7CCC6CN(c6cc(-c8ccccc8O)nnc6N)C7)ccn5)C4)C[C@H]3C)no2)C(C)C)cc1 (racemic) [compound 566, (2S,4R)-1-((2R)-2-(3-(2-((3S,4R)-1-(((1r,3S)-3-((4-(3-(3-amino-6-(2-hydroxyphenyl)pyridazin-4-yl)-3,8-diazabicyclo[3.2.1]octan-8-yl)pyridin-2-yl)oxy)cyclobutyl)methyl)-3-methylpiperidin-4-yl)ethoxy)isoxazol-5-yl)-3-methylbutanoyl)-4-hydroxy-N-((S)-1-(4-(4-methylthiazol-5-yl)phenyl)ethyl) pyrrolidine-2-carboxamide]
Dmax [3]: > 75%
DC50 [4]: < 2.5 nM

DC50 [5]: > 30 nM
Dmax (BRM degradation, SW1573 cells, when tested at the top concentration of between 0.3 and 10 μM, read-out: Dmax (%) (% degraded)): 50 to 75%
Structure (SMILES): Cc1ncsc1-c1ccc(CNC(=O)[C@@H]2C[C@@H](O)CN2C(=O)[C@H](c2cc(OCCOCCOCCOCCn3cc(-c4cc(-c5ccccc5O)nnc4N)cn3)no2)C(C)C)cc1 [compound 16, (2S,4R)-1-((S)-2-(3-(2-(2-(2-(2-(4-(3-amino-6-(2-hydroxyphenyl)pyridazin-4-yl)-1H-pyrazol-1-yl)ethoxy)ethoxy)ethoxy)ethoxy)isoxazol-5-yl)-3-methylbutanoyl)-4-hydroxy-N-(4-(4-methylthiazol-5-yl)benzyl)pyrrolidine-2-carboxamide]

Dmax [3]: > 75%
DC50 [4]: < 2.5 nM
Structure (SMILES): Cc1ncsc1-c1ccc([C@H](C)NC(=O)[C@@H]2C[C@@H](O)CN2C(=O)[C@H](c2cc(N3CCC(OC4CCN(CC5CC(CN6CCC([C@H](C)n7cc(-c8cc(-c9ccccc9O)nnc8N)cn7)CC6)C5)CC4)CC3)no2)C(C)C)cc1 (single isomer, unassigned) [compound 593]

Structure (SMILES): COc1nc(-c2scnc2C)ccc1[C@H](C)NC(=O)[C@@H]1C[C@@H](O)CN1C(=O)[C@H](c1cc(OCCN2CCC(O[C@H]3C[C@H](Oc4cc(N5C6CCC5CN(c5cc(-c7ccccc7O)nnc5N)C6)ccn4)C3)CC2)no1)C(C)C [compound 278, (2S,4R)-1-((2S)-2-(3-(2-(4-((1r,3S)-3-((4-(3-(3-amino-6-(2-hydroxyphenyl)pyridazin-4-yl)-3,8-diazabicyclo[3.2.1]octan-8-yl)pyridin-2-yl)oxy)cyclobutoxy)piperidin-1-yl)ethoxy)isoxazol-5-yl)-3-methylbutanoyl)-4-hydroxy-N-((S)-1-(2-methoxy-6-(4-methylthiazol-5-yl)pyridin-3-yl)ethyl)pyrrolidine-2-carboxamide]
DC50 [5]: > 30 nM

Structure (SMILES): Cc1ncsc1-c1ccc([C@H](C)NC(=O)[C@@H]2C[C@@H](O)CN2C(=O)[C@@H](c2cc(N3CCC(CN4CCC(O[C@H]5C[C@H](Oc6cc(N7CCN(c8cc(-c9ccccc9O)nnc8N)CC7)ccn6)C5)CC4)CC3)no2)C(C)C)cc1 [compound 693, (2S,4R)-1-((R)-2-(3-(4-((4-((1r,3r)-3-((4-(4-(3-amino-6-(2-hydroxyphenyl)pyridazin-4-yl)piperazin-1-yl)pyridin-2-yl)oxy)cyclobutoxy)piperidin-1-yl)methyl)piperidin-1-yl)isoxazol-5-yl)-3-methylbutanoyl)-4-hydroxy-N-((S)-1-(4-(4-methylthiazol-5-yl)phenyl)ethyl)pyrrolidine-2-carboxamide]
DC50 (BRM degradation, SW1573 cells): < 2.5 nM

Structure (SMILES): Cc1ncsc1-c1ccc([C@H](C)NC(=O)[C@@H]2C[C@@H](O)CN2C(=O)[C@@H](c2cc(N3CCC(CN4CCC(O[C@H]5C[C@@H](CN6CCC(C(C)n7cc(-c8cc(-c9ccccc9O)nnc8N)cn7)CC6)C5)CC4)CC3)no2)C(C)C)cc1 (stereo partly drawn) [compound 664, (2S,4R)-1-((2R)-2-(3-(4-((4-((1s,3s)-3-((4-(1-(4-(3-amino-6-(2-hydroxyphenyl)pyridazin-4-yl)-1H-pyrazol-1-yl)ethyl)piperidin-1-yl)methyl)cyclobutoxy)piperidin-1-yl)methyl)piperidin-1-yl)isoxazol-5-yl)-3-methylbutanoyl)-4-hydroxy-N-((S)-1-(4-(4-methylthiazol-5-yl)phenyl)ethyl)pyrrolidine-2-carboxamide]
DC50 [5]: < 2.5 nM
Dmax [6]: > 75%

Structure (SMILES): CC(C)[C@H](C(=O)N1C[C@H](O)C[C@H]1C(=O)N[C@@H](C)c1ccc(C#N)cc1)c1cc(OCCN2CCC(O[C@H]3C[C@H](Oc4cc(N5C6CCC5CN(c5cc(-c7ccccc7O)nnc5N)C6)ccn4)C3)CC2)no1 [compound 204, (2S,4R)-1-((2S)-2-(3-(2-(4-((1r,3S)-3-((4-(3-(3-amino-6-(2-hydroxyphenyl)pyridazin-4-yl)-3,8-diazabicyclo[3.2.1]octan-8-yl)pyridin-2-yl)oxy)cyclobutoxy)piperidin-1-yl)ethoxy)isoxazol-5-yl)-3-methylbutanoyl)-N-((S)-1-(4-cyanophenyl)ethyl)-4-hydroxypyrrolidine-2-carboxamide]
DC50 [5]: > 30 nM
Dmax (BRM degradation, SW1573 cells, tested at the top concentration of between 0.3 and 10 μM, read-out: Dmax (%) (% degraded)): > 75%

Structure (SMILES): CC(C)[C@@H](C(=O)N1C[C@H](O)C[C@H]1C(=O)N[C@@H](C)c1ccc(C2(F)CC2)cc1)c1cc(N2CCC(CN3CCC(O[C@H]4C[C@H](Oc5cc(N6C7CCC6CN(c6cc(-c8ccccc8O)nnc6N)C7)ccn5)C4)CC3)CC2)no1 [compound 713, (2S,4R)-1-((2R)-2-(3-(4-((4-((1r,3r)-3-((4-(3-(3-amino-6-(2-hydroxyphenyl)pyridazin-4-yl)-3,8-diazabicyclo[3.2.1]octan-8-yl)pyridin-2-yl)oxy)cyclobutoxy)piperidin-1-yl)methyl)piperidin-1-yl)isoxazol-5-yl)-3-methylbutanoyl)-N-((S)-1-(4-(1-fluorocyclopropyl)phenyl)ethyl)-4-hydroxypyrrolidine-2-carboxamide]
DC50 [5]: 2.5 to 10 nM
Dmax [6]: > 75%
